# Experimental data published in BindingDB's records for doi:10.1016/j.ejmech.2021.113336 (Zhejiang University, 2021).
# Experiment: Inhibition of P-glycoprotein in human MCF7/ADR cells assessed as reversal fold by measuring reduction in doxorubicin IC50 at 5 uM incubated for 48 hrs by CCK-8 assay
row,IC50 [µM],SMILES
1,9.1,COc1ccc(-c2ccc(C(=O)N3CCc4cc(OC)c(OC)cc4C3)o2)cc1
2,6.7,COc1cccc(-c2ccc(C(=O)N3CCc4cc(OC)c(OC)cc4C3)o2)c1
3,13.5,COc1cc2c(cc1OC)CN(C(=O)c1ccc(-c3ccccc3OC)o1)CC2
4,9.7,COc1ccc(-c2ccc(C(=O)N3CCc4cc(OC)c(OC)cc4C3)o2)cc1OC
5,19.8,COc1cc(OC)cc(-c2ccc(C(=O)N3CCc4cc(OC)c(OC)cc4C3)o2)c1
6,18.2,COc1cc2c(cc1OC)CN(C(=O)c1ccc(-c3cc(OC)c(OC)c(OC)c3)o1)CC2
7,15.1,COc1cc2c(cc1OC)CN(C(=O)c1ccc(-c3cccc(OC)c3OC)o1)CC2
8,18.3,COc1ccc(-c2ccc(C(=O)N3CCc4cc(OC)c(OC)cc4C3)o2)c(OC)c1
9,18.8,COc1ccc(OC)c(-c2ccc(C(=O)N3CCc4cc(OC)c(OC)cc4C3)o2)c1
10,15.4,CCOc1ccc(-c2ccc(C(=O)N3CCc4cc(OC)c(OC)cc4C3)o2)cc1
11,44.6,CCCOc1ccc(-c2ccc(C(=O)N3CCc4cc(OC)c(OC)cc4C3)o2)cc1
12,69.6,COc1cc2c(cc1OC)CN(C(=O)c1ccc(-c3ccc(OC(C)C)cc3)o1)CC2
13,62.7,CCCCOc1ccc(-c2ccc(C(=O)N3CCc4cc(OC)c(OC)cc4C3)o2)cc1
14,50.9,COc1cc2c(cc1OC)CN(C(=O)c1ccc(-c3ccc(OCC(C)C)cc3)o1)CC2
15,62.7,COc1cc2c(cc1OC)CN(C(=O)c1ccc(-c3ccc(OC(C)(C)C)cc3)o1)CC2
16,11.7,COc1cc2c(cc1OC)CN(C(=O)c1ccc(-c3ccc(OC(F)(F)F)cc3)o1)CC2
17,42,COc1cc2c(cc1OC)CN(C(=O)c1ccc(-c3ccc(Oc4ccccc4)cc3)o1)CC2
18,8.4,COc1cc2c(cc1OC)CN(C(=O)c1ccc(-c3ccc4c(c3)OCO4)o1)CC2
19,64.4,COc1cc2c(cc1OC)CN(C(=O)c1ccc(-c3ccc(SC(C)C)cc3)o1)CC2
